Results as given in US4857324A, “Exogenously acidified antacid compositions having cytoprotective properties” (priority 1987, dated 1989).

How the values were obtained:
gastric mucosa = conditions: literature; cited from earlier work
[1] = test system: ethanol induced gastric ulcers in the rat; assay: ethanol-induced lesion assay (cytoprotective activity) in rats; assay type: in vivo, rat (male Sprague-Dawley); conditions: for % INHIBITION: Table 4
Text: The cytoprotective activity of a compound may be observed in both animals and man by noting the increase resistance of the gastrointestinal mucosa to the noxious effects of strong irritants, for example, the ulcerogenic effects of aspirin or indomethacin.
The ethanol-induced lesion assay is a standard test for cytoprotective activity and is described in an article by A. Robert et al entitled "Cytoprotection By Prostaglandins in Rats" published in Gastroenterology 77:433-443, 1979.
The ethanol-induced lesion assay was used to measure the cytoprotective ability of commercial antacids. Male Sprague-Dawley rats (supplier, Charles River, Willmington, Mass.) weighing between 120-150 g were used. The rats were fasted for 24 hr prior to use (water ad libitum). Before dosing, the animals were placed two per cage and denied water.
Animals were orally, i.e. intragastrically pretreated, one hour before ethanol administration with either RIOPAN Extra Strength suspension, MAALOX suspension, PGE2, or vehicle. One hour after ethanol administration, the rats were sacrificed by CO2 asphyxiation. The stomachs were removed and kept moist with saline until the lesions were scored. Ulcers were scored with the investigator unaware of the treatment groups (single blind). Ulcers were graded according to the following scale: […]
GRADE (Approximate length of lesion)
Absolute ethanol was given orally, 1 ml/rat. RIOPAN Extra Strength, 1080 mg magaldrate per 5 ml (lot 3RM4), and MAALOX, 200 mg Mg(OH)2 +225 mg Al(OH)3 per 5 ml (lot 64700), were administered orally as commercially available suspensions. The dose volume administered was based on the ED50 (ml of antacid/kg, see Table 1).
The dose volume of acidified antacid was adjusted for the volume of 6 N HCl added to the suspension. PGE2 was stored in 100% ethanol and diluted with normal saline before use.
Magaldrate of Example 1 and MAALOX of Example 2 were prepared as described above. The dose volume of nonbuffering antacid was adjusted for the volume of 6 N HCl added to the suspension during preparation. PGE2 was stored in 100% ethanol and diluted with normal saline before use.
The mean ulcer score of each treatment group was compared to the control group and expressed as the percent inhibition of ulcer formation.
The cytoprotective ED50 before and after acidification for the magaldrate of Example 1, referred to in this example as RIOPAN Extra Strength, and for MAALOX of Example 2 was calculated by standard regression analysis of the dose-response data. Confidence limits of 95% were calculated using the statistical differential method.
The spray dried powders of Examples 8 through 15 were tested for cytoprotective activity in the ethanol-induced lesion assay as described in Example 7.
The respective powders were admixed with sufficient water to form a liquid and the animals were dosed 400 milligrams of powder per kilo of body weight […]. in the test.
The experiments were performed using ten rats for each test composition and using the in vivo test procedure described in Example 7. The dose of acidified Extra Strength RIOPAN was selected for the test at 0.46 milliliters per kilogram of rat body weight. Approximately 4.6 times this amount (8 times on a mg/kg basis) was selected for the dose of commercial Extra Strength RIOPAN. Approximately 30 times this amount was selected for each dose of the Wenger et al solutions.
Two experiments were performed using ten rats for each test composition and again using the in vivo test procedure described in Example 7. In these experiments the dose in milliliters per kilogram of rat body weight was equal for each test composition.

ethanol induced ulcer = conditions: Robert et al 1984; cited from earlier work
[2] = per 5 ml of suspension or liquid; cited from earlier work
gastric acid secretion = conditions: in vivo; cited from earlier work

[OH][Al]([OH])[OH] [Al(OH)3, aluminum hydroxide]
gastric cytoprotection (in words) (gastric mucosa): have cytoprotective properties

CCCCC[C@H](O)/C=C/[C@H]1[C@H](O)CC(=O)[C@@H]1C/C=C\CCCC(=O)O [PGE2]
% INHIBITION ([1]; dose 25 g/kg p.o. (so in the source)): 39%
% INHIBITION ([1]; dose 50 g/kg p.o. (so in the source)): 63%
% INHIBITION ([1]; dose 75 g/kg p.o. (so in the source)): 80%
effect on ethanol induced ulcers (in words) ([1]; rat, p.o.): inhibited ethanol induced ulcer formation
potency of PGE2 relative to acidified RIOPAN Extra Strength or acidified MAALOX ([1]; rat, p.o.): approximately 1000 times

[Cl][Al]([Cl])[Cl] [aluminum chloride]
cytoprotective activity (in words) ([1]; ethanol-induced gastric lesion model): does not exhibit such activity

CN/C(=N/CCSCc1nc[nH]c1C)NC#N [cimetidine]
protection in the ethanol induced ulcer model (ethanol induced ulcer): do not protect in this model

O.O=S(=O)([O-])[O-].O=S(=O)([O-])[O-].[Al+3].[Al+3].[Al+3].[Al+3].[Al+3].[Mg+2].[Mg+2].[Mg+2].[Mg+2].[Mg+2].[Mg+2].[Mg+2].[Mg+2].[Mg+2].[Mg+2].[OH-].[OH-].[OH-].[OH-].[OH-].[OH-].[OH-].[OH-].[OH-].[OH-].[OH-].[OH-].[OH-].[OH-].[OH-].[OH-].[OH-].[OH-].[OH-].[OH-].[OH-].[OH-].[OH-].[OH-].[OH-].[OH-].[OH-].[OH-].[OH-].[OH-].[OH-] [magaldrate, aluminum magnesium hydroxide sulfate]
effect on ethanol induced ulcers (in words) ([1]; rat, p.o.): inhibit ethanol induced ulcers in rats
acid neutralized / acid neutralization capacity (ANC) [2]: 13.5 to 15 mEq

CC(C)[N+](C)(CCOC(=O)C1c2ccccc2Oc2ccccc21)C(C)C [propantheline bromide]
protection in the ethanol induced ulcer model (ethanol induced ulcer): do not protect in this model

CCCCC[C@H](O)/C=C/[C@@H]1[C@@H](C/C=C\CCCC(=O)O)[C@@H](O)C[C@H]1O [prostaglandin F2]
gastric cytoprotection (in words) (gastric mucosa): does induce gastric cytoprotection
inhibition of gastric acid secretion (gastric acid secretion): does not inhibit gastric acid secretion
